Measured values reported in patent US11584710B2, “Compounds for treating infections” (HORITZONTS TECNOLOGICS HUNGARY KORLÁTOLT FELELOSSÉGU …, priority 2017, dated 2023).

Assays:
[1] = system: C. tropicalis; design: key: I = intermediate activity; S = susceptibility; R = Resistance; settings: C. tropicalis clinical strain; cited from earlier work
[2] = system: C. glabrata; design: key: I = intermediate activity; S = susceptibility; R = Resistance; settings: C. glabrata clinical strain; cited from earlier work
[3] = system: A. niger; design: key: I = intermediate activity; S = susceptibility; R = Resistance; settings: A. niger clinical strain; cited from earlier work
[4] = system: C. parapsilosis; design: key: I = intermediate activity; S = susceptibility; R = Resistance; settings: C. parapsilosis clinical strain; cited from earlier work
[5] = system: C. lusitaniae; design: key: I = intermediate activity; S = susceptibility; R = Resistance; settings: C. lusitaniae clinical strain; cited from earlier work
[6] = system: C. Krusei; design: key: I = intermediate activity; S = susceptibility; R = Resistance; settings: C. Krusei clinical strain; cited from earlier work
[7] = system: A. fumigatus; design: key: I = intermediate activity; S = susceptibility; R = Resistance; settings: A. fumigatus clinical strain; cited from earlier work
[8] = system: A. flavus; design: key: I = intermediate activity; S = susceptibility; R = Resistance; settings: A. flavus clinical strain; cited from earlier work
[9] = system: C. albicans; design: key: I = intermediate activity; S = susceptibility; R = Resistance; settings: C. albicans clinical strain; cited from earlier work
[10] = system: A. terreus; design: key: I = intermediate activity; S = susceptibility; R = Resistance; settings: A. terreus clinical strain; cited from earlier work
[11] = system: C. guillermondii; design: key: I = intermediate activity; S = susceptibility; R = Resistance; settings: C. guillermondii clinical strain; cited from earlier work
[12] = system: S. cerevisiae; design: key: I = intermediate activity; S = susceptibility; R = Resistance; settings: S. cerevisiae clinical strain; cited from earlier work
[13] = system: A. niger; test: Antifungal disk diffusion susceptibility test (CLSI M44); assay type: cell-based; settings: Aspergillus niger
Procedure: (§1) Filamentous fungi and yeasts strains, from clinical origin, were supplied by Microbiology Service from The Princess Hospital, Madrid. They are detailed in Table IX.
(§2) Filamentous fungi and yeast cells suspensions in distilled water was prepared from a culture of 24-48 h, depending on species, in Sabouraud agar. Each suspension was adjusted to a fixed size inoculum of 1-5×10^8 CFU/ml with a spectrophotometer (Ferraro, MJ National Committee for Clinical Laboratory Standards. 2000).
(§3) Antifungal susceptibility tests were developed following the standardized methodology detailed in document CLSI: M44-4: Method for Antifungal Disk diffusion susceptibility testing of yeasts consisting of disk diffusion on agar Muller-Hinton (supplemented with 2% glucose).

[14] = system: C. parapsilosis; test: as above; assay type: cell-based; settings: Lodderomyces parapsilosis
Procedure: as §1, §2, §3

[15] = system: C. guillermondii; test: as above; assay type: cell-based
Procedure: as §1, §2, §3

[16] = system: S. cerevisiae; test: as above; assay type: cell-based; settings: Saccharomyces cerevisiae
Procedure: as §1, §2, §3

[17] = system: A. terreus; test: as above; assay type: cell-based; settings: Aspergillus terreus
Procedure: as §1, §2, §3

[18] = system: C. tropicalis; test: as above; assay type: cell-based; settings: Candida tropicalis
Procedure: as §1, §2, §3

[19] = system: A. flavus; test: as above; assay type: cell-based; settings: Aspergillus flavus
Procedure: as §1, §2, §3

[20] = system: A. fumigatus; test: as above; assay type: cell-based; settings: Aspergillus fumigatus
Procedure: as §1, §2, §3

[21] = system: C. lusitaniae; test: as above; assay type: cell-based; settings: Clavispora lusitaniae
Procedure: as §1, §2, §3

[22] = system: C. albicans; test: as above; assay type: cell-based; settings: Candida albicans
Procedure: as §1, §2, §3

[23] = system: A. baumannii; test: Kirby-Bauer disk diffusion susceptibility test; assay type: cell-based; settings: 300 μg/disc
Procedure: (§4) Bacterial strains, from clinical origin, were supplied by the National Center for Microbiology, Institute of Health Carlos III (Majadahonda, Madrid). They are detailed in Table 1.
(§5) Bacterial cells suspension in sterile saline was prepared from a culture of 24-72 h, depending on bacterial species, in Mueller-Hinton Agar with 5% sheep blood. Each suspension was adjusted to a fixed size inoculum of 1-5×10^8 CFU/ml with a spectrophotometer (Ferraro, MJ National Committee for Clinical Laboratory Standards. 2000).
(§6) Kirby-Bauer disk diffusion susceptibility test protocol was utilized to determine the sensitivity or resistance of pathogenic bacteria against the compounds and others antibiotics. The absence of growth around the disks is an indirect measure of the ability of this compound to inhibit an organism (Kirby, W., et al., Antibiotics Annu. 1956-1957:892). After 18 to 72 hours of incubation at 37° C., with or without CO2, under aerobic or anaerobic conditions, depending on the bacterial species, halo of growth inhibition were obtained and evaluated.
(§7) Interpretation of susceptibility and resistance was based on the presence or absence of a zone of inhibition surrounding the disk. Kirby-Bauer disk diffusion susceptibility test is a common method which uses antibiotic-impregnated wafers to test whether bacteria are affected by antibiotics. The size of the zone of inhibition depends on how effective the antibiotic is at stopping the growth of the bacterium. A stronger antibiotic will create a larger zone, because a lower concentration of the antibiotic is enough to stop growth.
(§8) All compounds were tested at 300 μg/disc.

[24] = system: N. carnea; test: Kirby-Bauer disk diffusion susceptibility test; assay type: cell-based; settings: 300 μg/disc
Procedure: as §4, §5, §6, §7, §8

[25] = system: K. pneumoniae; test: Kirby-Bauer disk diffusion susceptibility test; assay type: cell-based; settings: 300 μg/disc
Procedure: as §4, §5, §6, §7, §8

[26] = system: N. cyriacigeorgica; test: Kirby-Bauer disk diffusion susceptibility test; assay type: cell-based; settings: 300 μg/disc
Procedure: as §4, §5, §6, §7, §8

[27] = system: T. pulmonis; test: Kirby-Bauer disk diffusion susceptibility test; assay type: cell-based; settings: 300 μg/disc
Procedure: as §4, §5, §6, §7, §8

C[C@@H]1[C@H](O)[C@@H](C)/C=C/C=C/C=C/C=C/C=C/C=C/C=C/[C@H](O[C@@H]2O[C@H](C)[C@@H](O)[C@H](N)[C@@H]2O)C[C@@H]2O[C@](O)(C[C@@H](O)C[C@@H](O)[C@H](O)CC[C@@H](O)C[C@@H](O)CC(=O)O[C@H]1C)C[C@H](O)[C@H]2C(=O)O [Amphotericin B]
Susceptibility of the strain [1]: S | Susceptibility of the strain [2]: S | Susceptibility of the strain [3]: S | Susceptibility of the strain [4]: S | Susceptibility of the strain [5]: I | Susceptibility of the strain [6]: I | Susceptibility of the strain [7]: S | Susceptibility of the strain [8]: I | Susceptibility of the strain [9]: I | Susceptibility of the strain [10]: I | Susceptibility of the strain [11]: R | Susceptibility of the strain [12]: I

Clc1ccccc1C(c1ccccc1)(c1ccccc1)n1ccnc1 [Clo, clotrimazol]
Susceptibility of the strain [1]: S | Susceptibility of the strain [2]: S | Susceptibility of the strain [3]: S | Susceptibility of the strain [4]: S | Susceptibility of the strain [5]: S | Susceptibility of the strain [6]: S | Susceptibility of the strain [7]: S | zone of inhibition at 10 µg/disc ([13]; A. niger, 10 μg control): 25 mm | zone of inhibition at 10 µg/disc ([14]; C. parapsilosis, 10 μg control): 42 mm | zone of inhibition at 10 µg/disc ([15]; C. guillermondii, 10 μg control): 44 mm | zone of inhibition at 10 µg/disc ([16]; S. cerevisiae, 10 μg control): 30 mm | zone of inhibition at 10 µg/disc ([17]; A. terreus, 10 μg control): 26 mm | zone of inhibition at 10 µg/disc ([18]; C. tropicalis, 10 μg control): 25 mm | zone of inhibition at 10 µg/disc ([19]; A. flavus, 10 μg control): 32 mm | zone of inhibition at 10 µg/disc ([20]; A. fumigatus, 10 μg control): 22 mm | zone of inhibition at 10 µg/disc ([21]; C. lusitaniae, 10 μg control): 41 mm | zone of inhibition at 10 µg/disc ([22]; C. albicans, 10 μg control): 15 mm | Susceptibility of the strain [8]: S | Susceptibility of the strain [9]: S | Susceptibility of the strain [10]: S | Susceptibility of the strain [11]: R | Susceptibility of the strain [12]: R

OC(Cn1cncn1)(Cn1cncn1)c1ccc(F)cc1F [Fluconazole]
Susceptibility of the strain [1]: S | Susceptibility of the strain [2]: S | Susceptibility of the strain [3]: R | Susceptibility of the strain [4]: S | Susceptibility of the strain [5]: S | Susceptibility of the strain [6]: S | Susceptibility of the strain [7]: R | Susceptibility of the strain [8]: R | Susceptibility of the strain [9]: S | Susceptibility of the strain [10]: R | Susceptibility of the strain [11]: R | Susceptibility of the strain [12]: S

CC(=O)N1CCN(c2ccc(OCC3COC(Cn4ccnc4)(c4ccc(Cl)cc4Cl)O3)cc2)CC1 (stereo not drawn) [Ket, ketoconazole]
Susceptibility of the strain [1]: S | Susceptibility of the strain [2]: S | Susceptibility of the strain [3]: S | Susceptibility of the strain [4]: S | Susceptibility of the strain [5]: S | Susceptibility of the strain [6]: S | Susceptibility of the strain [7]: S | zone of inhibition at 50 µg/disc ([13]; read-out: Activity (mm)): 25 mm | zone of inhibition at 50 µg/disc ([14]; read-out: Activity (mm)): 42 mm | zone of inhibition at 50 µg/disc ([15]; read-out: Activity (mm)): 44 mm | zone of inhibition at 50 µg/disc ([16]; read-out: Activity (mm)): 30 mm | zone of inhibition at 50 µg/disc ([17]; read-out: Activity (mm)): 26 mm | zone of inhibition at 50 µg/disc ([18]; read-out: Activity (mm)): 25 mm | zone of inhibition at 50 µg/disc ([19]; read-out: Activity (mm)): 32 mm | zone of inhibition at 50 µg/disc ([20]; read-out: Activity (mm)): 22 mm | zone of inhibition at 50 µg/disc ([21]; read-out: Activity (mm)): 41 mm | zone of inhibition at 50 µg/disc ([22]; read-out: Activity (mm)): 22 mm | Susceptibility of the strain [8]: S | Susceptibility of the strain [9]: S | Susceptibility of the strain [10]: S | Susceptibility of the strain [11]: R | Susceptibility of the strain [12]: S

NNC(=O)C(=O)NNc1ccc(Br)cc1 [MSG-216]
Activity detected (mm) [23]: 12 mm | Activity detected (mm) [24]: 14 mm | Activity detected (mm) [25]: 11 mm | Activity detected (mm) [26]: 17 mm | Activity detected (mm) [27]: 25 mm | zone of inhibition at 150 µg/disc ([13]; A. niger, 150 μg/disc): 10 mm | zone of inhibition at 500 µg/disc ([13]; A. niger, 500 μg/disc): 36 mm | zone of inhibition at 150 µg/disc ([14]; C. parapsilosis, 150 μg/disc): 11 mm | zone of inhibition at 500 µg/disc ([14]; C. parapsilosis, 500 μg/disc): > 40 mm | zone of inhibition at 150 µg/disc ([15]; C. guillermondii, 150 μg/disc): 13 mm | zone of inhibition at 500 µg/disc ([15]; C. guillermondii, 500 μg/disc): > 40 mm | zone of inhibition at 150 µg/disc ([16]; S. cerevisiae, 150 μg/disc): 19 mm | zone of inhibition at 500 µg/disc ([16]; S. cerevisiae, 500 μg/disc): 35 mm | zone of inhibition at 150 µg/disc ([17]; A. terreus, 150 μg/disc): < 10 mm | zone of inhibition at 500 µg/disc ([17]; A. terreus, 500 μg/disc): 10 mm | zone of inhibition at 150 µg/disc ([18]; C. tropicalis, 150 μg/disc): 26 mm | zone of inhibition at 500 µg/disc ([18]; C. tropicalis, 500 μg/disc): > 40 mm | zone of inhibition at 150 µg/disc ([19]; A. flavus, 150 μg/disc): < 10 mm | zone of inhibition at 500 µg/disc ([19]; A. flavus, 500 μg/disc): < 10 mm | zone of inhibition at 150 µg/disc ([20]; A. fumigatus, 150 μg/disc): < 10 mm | zone of inhibition at 500 µg/disc ([20]; A. fumigatus, 500 μg/disc): 10 mm | zone of inhibition at 150 µg/disc ([21]; C. lusitaniae, 150 μg/disc): 36 mm | zone of inhibition at 500 µg/disc ([21]; C. lusitaniae, 500 μg/disc): > 40 mm | zone of inhibition at 150 µg/disc ([22]; C. albicans, 150 μg/disc): 24 mm | zone of inhibition at 500 µg/disc ([22]; C. albicans, 500 μg/disc): > 40 mm
